Experimental data: PMC6628624 (Toxins, 2019)
Read-outs that look alike come from different tables or passages of the source.

Legend:
Caco-2 cells [1] = settings: cited from earlier work
[2] = rat, in vivo; cited from earlier work
[3] = pig, in vivo; cited from earlier work
rats = settings: rat, in vivo; cited from earlier work
mice = settings: mouse, in vivo, cited from earlier work
in vivo = settings: male, Landrace × Large White × Duroc, pig, 0.1 mg/kg
[4] = rat, in vivo, sc; cited from earlier work
[5] = in vivo
Caco-2 cells [6] = settings: human
in vitro = settings: human, Caco-2, Papp (apparent permeability coefficient)
[7] = monkey, in vivo; cited from earlier work
[8] = male, Landrace × Large White × Duroc, swine, 0.1 mg/kg
[9] = male, Landrace × Large White × Duroc, swine, po, 0.1 mg/kg

aflatoxin M1
Papp (Caco-2 cells [1]): 105.10 ± 7.98 ×10^−6 cm/s

aflatoxin B1
elimination half-life [2]: 91.8 h

CCCC[C@@H](C)[C@@H](OC(=O)C[C@@H](CC(=O)O)C(=O)O)[C@H](C[C@@H](C)C[C@H](O)CCCC[C@@H](O)C[C@H](O)[C@H](C)N)OC(=O)C[C@@H](CC(=O)O)C(=O)O [fumonisin B1]
elimination half-life [3]: 3.03 h

COc1cc(=O)oc(/C=C/C=C/C=C/C(C)=C/[C@]2(C)O[C@H](C)[C@](C)(O)[C@H]2O)c1C [CTVD, Citreoviridin]
outcome of chronic low-dose administration (rats): rats died | LD50 (lethal dose 50%) (mice; ip): 7.5 mg/kg | LD50 (lethal dose 50%) (mice; sc): 3.6 to 11.8 mg/kg | AUC(0-inf) (in vivo; iv): 1510 ± 332 ng·h/mL | AUC(0-t) (in vivo; iv): 1320 ± 224 ng·h/mL | MRT (in vivo; iv): 14.6 ± 1.2 h | half-life (in vivo; iv): 16.2 ± 4.3 h | AUC(0-inf) (in vivo; po): 1760 ± 814 ng·h/mL | AUC(0-t) (in vivo; po): 1050 ± 181 ng·h/mL | Cmax (in vivo; po): 38.2 ± 6.7 ng/mL | MRT (in vivo; po): 19.6 ± 4 h | Tmax (in vivo; po): 15 ± 6 h | half-life (in vivo; po): 21.4 ± 12.7 h | CTVD still detected in the liver after 52 h [4]: < 1 % of the total administered dose | persistence of CTVD in organs at 52 h [4]: remained in the liver, kidney, and heart | time at which the concentration of CTVD was highest in the liver [4]: 8 h | adverse clinical signs [5]: None | plasma CTVD concentration until 3 h after PO ([5]; po, 0.1 mg/kg): almost no increase | time to eliminate CTVD in plasma ([5]; male, Landrace × Large White × Duroc, swine): more than 40 h | F (bioavailability calculated using mean AUC∞ after PO and IV) [5, 8]: 116.4% | Ft (bioavailability calculated using mean AUCt after PO and IV) [5, 8]: 79.3% | Vd (apparent volume of distribution) ([5]; male, Landrace × Large White × Duroc, swine, iv, 0.1 mg/kg): 1.5 ± 0.2 L | extrapolation estimate of AUC (from 48 h to infinity) relative to AUCt ([5]; male, Landrace × Large White × Duroc, swine, po): 68 % of AUCt | Kel (rate constant) [5, 9]: 0.4 ± 0.2 ×10^−1 h^−1 | Vd/F (apparent volume of distribution) [5, 9]: 1.7 ± 0.3 L | Papp (apparent permeability coefficient) (Caco-2 cells [6]): 42.6 ± 17.7 ×10^−6 cm/s | Papp (in vitro): 52.2 ± 28.3 ×10⁻⁶ cm/s

CC1=C[C@H]2O[C@@H]3[C@H](O)C[C@](C)([C@@]2(CO)[C@H](O)C1=O)[C@]31CO1 [deoxynivalenol]
bioavailability [3]: 48–109.8% | elimination half-life [3]: 7.2 to 15.2 h | Papp (Caco-2 cells [1]; Caco-2): 0.19 ± 0.02 × 10^−6 cm/min

C[C@@H]1Cc2c(Cl)cc(C(=O)N[C@@H](Cc3ccccc3)C(=O)O)c(O)c2C(=O)O1 [ochratoxin A]
bioavailability [3]: 65.7% | elimination half-life [3]: 84.5 h | elimination half-life [7]: 840 h

C[C@H]1CCCC(=O)CCC/C=C/c2cc(O)cc(O)c2C(=O)O1 [zearalenone]
bioavailability [3]: 80–85% | Papp (Caco-2 cells [1]; Caco-2): 10.4 ± 4.7 × 10^−6 cm/s
